# PubChem BioAssay AID1195 (EPA DSSTox, 2008)
# Tested on: human maximum recommended daily dose, FDA database
# Assay: DSSTox (FDAMDD) FDA Maximum (Recommended) Daily Dose Database
# Details: active compounds read low
# Summary of the method: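 MRDD values come from clinical trials with daily oral dosing, usually for 3–12 months, for the average adult, in mg/day converted to mg/kg-bw/day assuming 60 kg. Antineoplastic mg/m2 doses are divided by 37. Activity score maps log10(1/MRDD mmol) onto 1–100.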
# [1] = TherapeuticCategory: antibacterial
# [2] = TherapeuticCategory: anticonvulsant
# [3] = TherapeuticCategory: narcotic analgesic
# [4] = TherapeuticCategory: antipsychotic
# [5] = TherapeuticCategory: anxiolytic
# [6] = TherapeuticCategory: antidiabetic
# [7] = TherapeuticCategory: anthelmintic
# [8] = TherapeuticCategory: antihypertensive
# [9] = TherapeuticCategory: glucocorticoid
# [10] = TherapeuticCategory: anticoagulant
# [11] = TherapeuticCategory: expectorant
# [12] = TherapeuticCategory: vasodilator
# [13] = TherapeuticCategory: adrenergic
# [14] = TherapeuticCategory: sedative, hypnotic
smiles,measurement,setting,value
CO/N=C(\C(=O)N[C@@H]1C(=O)N2C(C(=O)O)=C(CSc3nc(C)c(CC(=O)O)s3)CS[C@H]12)c1csc(N)n1,maximum recommended daily dose (mmol/kg-bw/day),[1],0.057
CCC1(C)OC(=O)N(C)C1=O (stereo unspecified),maximum recommended daily dose (mmol/kg-bw/day),[2],0.255
N[C@@H](Cc1c[nH]c2ccccc12)C(=O)O,maximum recommended daily dose (mmol/kg-bw/day),"TherapeuticCategory: antidepressant, nutrient",0.49
CC1(C)S[C@@H]2[C@H](N3C(=O)C(c4ccccc4)NC3(C)C)C(=O)N2[C@H]1C(=O)O (stereo partly specified),maximum recommended daily dose (mmol/kg-bw/day),[1],0.0855
CCOC(=O)C1(c2ccccc2)CCN(CCc2ccc(N)cc2)CC1,maximum recommended daily dose (mmol/kg-bw/day),[3],0.00945
CN1CCN(CC(=O)N2c3ccccc3C(=O)Nc3cccnc32)CC1,maximum recommended daily dose (mmol/kg-bw/day),TherapeuticCategory: antiulcerative,0.00711
CNCC12CCC(c3ccccc31)c1ccccc12,maximum recommended daily dose (mmol/kg-bw/day),"TherapeuticCategory: anxiolytic, skeletal muscle relaxant",0.00401
CN1[C@@H]2CCC[C@H]1CC(NC(=O)c1nn(C)c3ccccc13)C2 (stereo partly specified),maximum recommended daily dose (mmol/kg-bw/day),TherapeuticCategory: antiemetic,3.2e-05
CC(C(=O)O)c1cccc(Oc2ccccc2)c1 (stereo unspecified),maximum recommended daily dose (mmol/kg-bw/day),"TherapeuticCategory: analgesic, anti inflammatory",0.206
COC(=O)C1=C(C)NC(C)=C(C(=O)OC(C)C)C1c1cccc2nonc12 (stereo unspecified),maximum recommended daily dose (mmol/kg-bw/day),"TherapeuticCategory: antihypertensive, antianginal",0.00045
CN(C)CCCN1c2ccccc2Sc2ccccc21,maximum recommended daily dose (mmol/kg-bw/day),[4],0.0587
COC(=O)C1=C(C)NC(C)=C(C(=O)O[C@@H]2CCCN(Cc3ccccc3)C2)[C@@H]1c1cccc([N+](=O)[O-])c1,maximum recommended daily dose (mmol/kg-bw/day),"TherapeuticCategory: antihypertensive, Ca channel blocker",0.000263
Cc1nc(N/C(N)=N/S(=O)(=O)c2ccc(N)cc2)oc1C,maximum recommended daily dose (mmol/kg-bw/day),[1],0.129
Nc1nc(N)c2nc(-c3ccccc3)c(N)nc2n1,maximum recommended daily dose (mmol/kg-bw/day),TherapeuticCategory: diuretic,0.0131
CN1CCN(C2=Nc3ccccc3Oc3ccc(Cl)cc32)CC1,maximum recommended daily dose (mmol/kg-bw/day),[5],0.0127
CC(C)(C)c1nnc(NS(=O)(=O)c2ccccc2)s1,maximum recommended daily dose (mmol/kg-bw/day),[6],0.042
CN[C@@H]1[C@@H](O)[C@@H](O[C@@H]2[C@@H](O)[C@H](OC3OC(CN)=CCC3N)[C@@H](N)C[C@H]2N)OC[C@]1(C)O (stereo partly specified),maximum recommended daily dose (mmol/kg-bw/day),[1],0.0067
C#C[C@]1(O)CC[C@H]2[C@@H]3CCC4=CC(=O)CCC4=C3C=C[C@@]21CC,maximum recommended daily dose (mmol/kg-bw/day),TherapeuticCategory: antigonadotropin,0.000135
CC(C)NCC(O)COc1ccc(O)cc1 (stereo unspecified),maximum recommended daily dose (mmol/kg-bw/day),TherapeuticCategory: cardiotonic,0.00148
COC12CC[C@@]3(C[C@@H]1[C@](C)(O)C(C)(C)C)[C@H]1Cc4ccc(O)c5c4[C@@]3(CCN1CC1CC1)[C@H]2O5,maximum recommended daily dose (mmol/kg-bw/day),[3],0.00114
CCN(CC)C(=O)N1CCN(C)CC1,maximum recommended daily dose (mmol/kg-bw/day),[7],0.0301
C[C@H](CSC(=O)[C@@H](C)NC(=O)C1CCCCC1)C(=O)N1CCC[C@H]1C(=O)O,maximum recommended daily dose (mmol/kg-bw/day),[8],0.00251
C[C@@H]1CN2CC(=O)Nc3ccc(Cl)cc3[C@]2(c2ccccc2)O1,maximum recommended daily dose (mmol/kg-bw/day),[5],0.00304
CC(=O)OCC(=O)[C@@]1(O)[C@H](C)C[C@H]2[C@@H]3C[C@H](F)C4=CC(=O)C=C[C@]4(C)[C@H]3[C@@H](O)C[C@@]21C,maximum recommended daily dose (mmol/kg-bw/day),[9],0.000921
CC(C)COCC(CN(Cc1ccccc1)c1ccccc1)N1CCCC1 (stereo unspecified),maximum recommended daily dose (mmol/kg-bw/day),TherapeuticCategory: antianginal,0.0182
O=C1C(=O)c2ccccc2C(O)=C1C1CCC(c2ccc(Cl)cc2)CC1 (stereo unspecified),maximum recommended daily dose (mmol/kg-bw/day),"TherapeuticCategory: antiprotozoal, antimalarial, antifungal",0.102
CCC(c1ccccc1)c1c(O)c2ccccc2oc1=O (stereo unspecified),maximum recommended daily dose (mmol/kg-bw/day),[10],0.00143
COc1ccc(/C=C/C(=O)Nc2ccccc2C(=O)O)cc1OC,maximum recommended daily dose (mmol/kg-bw/day),TherapeuticCategory: antiallergic,0.0153
CCOC(=O)c1ccc(N)cc1,maximum recommended daily dose (mmol/kg-bw/day),TherapeuticCategory: topical anesthetic,0.00726
CN1CCc2cccc3c2[C@H]1Cc1ccc(O)c(O)c1-3,maximum recommended daily dose (mmol/kg-bw/day),TherapeuticCategory: emetic,0.00625
CCCCc1ncc(/C=C(\Cc2cccs2)C(=O)O)n1Cc1ccc(C(=O)O)cc1,maximum recommended daily dose (mmol/kg-bw/day),[8],0.0313
CC(C)(N)Cc1ccc(Cl)cc1,maximum recommended daily dose (mmol/kg-bw/day),TherapeuticCategory: anorexic,0.00588
Cc1c(C(=O)O)c(O)cc2c1C(=O)c1c(O)c([C@@H]3O[C@H](CO)[C@@H](O)[C@H](O)[C@H]3O)c(O)c(O)c1C2=O,maximum recommended daily dose (mmol/kg-bw/day),TherapeuticCategory: none,0.0169
C#CCN(C)[C@H](C)Cc1ccccc1,maximum recommended daily dose (mmol/kg-bw/day),TherapeuticCategory: antiparkinsonian,0.000892
CC(=O)N(O)CCCCCNC(=O)CCC(=O)N(O)CCCCCNC(=O)CCC(=O)N(O)CCCCCN,maximum recommended daily dose (mmol/kg-bw/day),TherapeuticCategory: parenteral chelating agent,0.178
COC(=O)[C@H]1[C@H]2C[C@@H]3c4[nH]c5cc(OC)ccc5c4CCN3C[C@H]2C[C@@H](OC(=O)/C=C/c2cc(OC)c(OC)c(OC)c2)[C@@H]1OC,maximum recommended daily dose (mmol/kg-bw/day),[8],2.63e-05
CCOC(=O)[C@H](CCc1ccccc1)N[C@H]1CCc2ccccc2N(CC(=O)O)C1=O,maximum recommended daily dose (mmol/kg-bw/day),"TherapeuticCategory: antihypertensive, ACE inhibitor",0.00313
O=C1c2ccccc2C(=O)C1c1ccccc1,maximum recommended daily dose (mmol/kg-bw/day),[10],0.015
O=P(O)(O)OC(CO)CO,maximum recommended daily dose (mmol/kg-bw/day),TherapeuticCategory: none,0.388
O=C1CN2CCOC2(c2ccccc2F)c2cc(Cl)ccc2N1CCO (stereo unspecified),maximum recommended daily dose (mmol/kg-bw/day),[5],0.000531
CC(C)(C)NCC(O)c1cc(O)cc(O)c1 (stereo unspecified),maximum recommended daily dose (mmol/kg-bw/day),"TherapeuticCategory: bronchodilator, tocolytic",0.00111
CC(I)C1OCC(CO)O1 (stereo unspecified),maximum recommended daily dose (mmol/kg-bw/day),[11],0.0155
O=C(c1ccc(F)cc1)C1CCN(CCn2c(=O)[nH]c3ccccc3c2=O)CC1,maximum recommended daily dose (mmol/kg-bw/day),[8],0.00336
C[N+](C)(C)CCCCCCCCCC[N+](C)(C)C,maximum recommended daily dose (mmol/kg-bw/day),TherapeuticCategory: skeletal muscle relaxant,9.97e-05
O=C(O)c1cc(O)c2c(c1)[C@H]([C@H]1c3cc(C(=O)O)cc(O)c3C(=O)c3c(O[C@@H]4O[C@H](CO)[C@@H](O)[C@H](O)[C@H]4O)cccc31)c1cccc(O[C@@H]3O[C@H](CO)[C@@H](O)[C@H](O)[C@H]3O)c1C2=O,maximum recommended daily dose (mmol/kg-bw/day),TherapeuticCategory: cathartic,0.0194
CN(C)CC/C=C1/c2ccccc2COc2ccccc21,maximum recommended daily dose (mmol/kg-bw/day),TherapeuticCategory: antidepressant,0.0179
Nc1nnc(-c2cccc(Cl)c2Cl)c(N)n1,maximum recommended daily dose (mmol/kg-bw/day),[2],0.026
CCN(CC)CCOC(=O)C1(C2CCCCC2)CCCCC1,maximum recommended daily dose (mmol/kg-bw/day),TherapeuticCategory: anticholinergic,0.0043
CC(=O)O[C@H]1C[C@@]2(C)[C@@H](C[C@@H](O)[C@H]3[C@@]4(C)CC[C@@H](O)[C@@H](C)[C@@H]4CC[C@@]32C)/C1=C(\CCC=C(C)C)C(=O)O,maximum recommended daily dose (mmol/kg-bw/day),[1],0.0484
CN1CCCN=C1/C=C/c1cccs1,maximum recommended daily dose (mmol/kg-bw/day),[7],0.0969
NS(=O)(=O)c1ccc(N2CCCCS2(=O)=O)cc1,maximum recommended daily dose (mmol/kg-bw/day),[2],0.0344
CN[C@@H]1[C@H](O[C@H]2[C@H](O[C@H]3[C@H](O)[C@@H](O)[C@H](N=C(N)N)[C@@H](O)[C@@H]3N=C(N)N)O[C@@H](C)[C@]2(O)CO)O[C@@H](CO)[C@H](O)[C@H]1O,maximum recommended daily dose (mmol/kg-bw/day),[1],0.0286
NCCCC[C@H](N)C(=O)O,maximum recommended daily dose (mmol/kg-bw/day),TherapeuticCategory: nutrient,0.684
CC(C)NNC(=O)c1ccncc1,maximum recommended daily dose (mmol/kg-bw/day),"TherapeuticCategory: monoamine oxidase inhibitor, antidepressant",0.0139
CCCN(CC)C(CC)C(=O)Nc1c(C)cccc1C (stereo unspecified),maximum recommended daily dose (mmol/kg-bw/day),TherapeuticCategory: local anesthetic,0.0241
O=C(OC1C(OC(=O)c2cccnc2)C(OC(=O)c2cccnc2)C(OC(=O)c2cccnc2)C(OC(=O)c2cccnc2)C1OC(=O)c1cccnc1)c1cccnc1 (stereo unspecified),maximum recommended daily dose (mmol/kg-bw/day),[12],0.0823
CC1CC(OC(=O)C(O)c2ccccc2)CC(C)(C)C1 (stereo unspecified),maximum recommended daily dose (mmol/kg-bw/day),[12],0.0966
CCC(Cc1c(I)cc(I)c(N)c1I)C(=O)O (stereo unspecified),maximum recommended daily dose (mmol/kg-bw/day),TherapeuticCategory: diagnostic aid,0.175
CN(C)CCOC(c1ccccc1)c1ccc(Br)cc1 (stereo unspecified),maximum recommended daily dose (mmol/kg-bw/day),TherapeuticCategory: antihistaminic,0.00748
CCCCNC(=O)NS(=O)(=O)c1ccc(N)cc1,maximum recommended daily dose (mmol/kg-bw/day),[6],0.0615
Cc1ncc2n1-c1ccc(Cl)cc1C(c1ccccc1F)=NC2,maximum recommended daily dose (mmol/kg-bw/day),TherapeuticCategory: anesthetic,0.000256
CC(=O)OCC(CCn1cnc2cnc(N)nc21)COC(C)=O,maximum recommended daily dose (mmol/kg-bw/day),TherapeuticCategory: antiviral,0.0778
CN[C@@H]1[C@H](O)[C@H](NC)[C@H]2O[C@@]3(O)C(=O)C[C@@H](C)O[C@H]3O[C@@H]2[C@H]1O,maximum recommended daily dose (mmol/kg-bw/day),[1],0.201
C#C[C@]1(O)CC[C@H]2[C@@H]3CCC4=CC(=O)CC[C@]4(C)[C@H]3CC[C@@]21C,maximum recommended daily dose (mmol/kg-bw/day),TherapeuticCategory: progestogen,0.00534
C#CCN(C)Cc1ccccc1,maximum recommended daily dose (mmol/kg-bw/day),[8],0.0209
CC(=O)c1ccc2c(c1)N(CCCN1CCC(CCO)CC1)c1ccccc1S2,maximum recommended daily dose (mmol/kg-bw/day),[4],0.0065
CNC(C)(C)Cc1ccccc1,maximum recommended daily dose (mmol/kg-bw/day),[13],0.00613
CCC(=O)C(CC(C)N(C)C)(c1ccccc1)c1ccccc1 (stereo unspecified),maximum recommended daily dose (mmol/kg-bw/day),[3],0.00162
O=C(O)c1cn(C2CC2)c2cc(N3CCNCC3)c(F)cc2c1=O,maximum recommended daily dose (mmol/kg-bw/day),[1],0.0401
CCCC(C)C1(CC)C(=O)NC(=O)NC1=O (stereo unspecified),maximum recommended daily dose (mmol/kg-bw/day),[14],0.0147
Nc1c(Br)cc(Br)cc1CNC1CCC(O)CC1 (stereo unspecified),maximum recommended daily dose (mmol/kg-bw/day),[11],0.00529
CC(C)(C)NC(=O)[C@@H]1CN(Cc2cccnc2)CCN1C[C@@H](O)C[C@@H](Cc1ccccc1)C(=O)N[C@H]1c2ccccc2C[C@H]1O,maximum recommended daily dose (mmol/kg-bw/day),TherapeuticCategory: antiviral,0.0264
COc1ccc(OC)c(C(O)C(C)N)c1 (stereo unspecified),maximum recommended daily dose (mmol/kg-bw/day),[13],0.00158
CC(CN(C)C)C(C)(O)Cc1ccc(Cl)cc1 (stereo unspecified),maximum recommended daily dose (mmol/kg-bw/day),TherapeuticCategory: antitussive,0.0156
CC(C)(C)CC(=O)OCC(=O)[C@@]1(O)CC[C@H]2[C@@H]3CCC4=CC(=O)C=C[C@]4(C)[C@H]3[C@@H](O)C[C@@]21C,maximum recommended daily dose (mmol/kg-bw/day),[9],0.00726
CCC1(CC)C(=O)NC(=O)NC1=O,maximum recommended daily dose (mmol/kg-bw/day),[14],0.0543
